ChEMBL document CHEMBL4308841, “Synthesis, in vitro antiproliferative activity, and kinase inhibitory effects of pyrazole-containing diarylureas and diarylamides” (Eur J Med Chem, 2018)

Legend:
NCI-H522 [1] = assay: Growth inhibition of human NCI-H522 cells assessed as cell growth at 10 uM incubated for 48 hrs by sulforhodamine B assay relative to control; assay type: functional; conditions: NCI-H522, 48 h, read-out: Activity
HT-29 [2] = assay: Growth inhibition of human HT-29 cells assessed as cell growth at 10 uM incubated for 48 hrs by sulforhodamine B assay relative to control; assay type: functional; conditions: HT-29, 48 h, read-out: Activity
SK-MEL-2 = assay: Growth inhibition of human SK-MEL-2 cells assessed as cell growth at 10 uM incubated for 48 hrs by sulforhodamine B assay relative to control; assay type: functional; conditions: SK-MEL-2, 48 h, read-out: Activity
NCI-H226 = assay: Growth inhibition of human NCI-H226 cells incubated for 48 hrs by sulforhodamine B assay; assay type: functional, cell-based; conditions: NCI-H226, 48 h
SW-620 = assay: Growth inhibition of human SW620 cells incubated for 48 hrs by sulforhodamine B assay; assay type: functional, cell-based; conditions: SW-620, 48 h
CCRF-CEM [3] = assay: Growth inhibition of human CCRF-CEM cells assessed as cell growth at 0.01 uM incubated for 48 hrs by sulforhodamine B assay relative to control; assay type: functional; conditions: read-out: Activity
SF-268 = assay: Growth inhibition of human SF268 cells assessed as cell growth at 0.01 uM incubated for 48 hrs by sulforhodamine B assay relative to control; assay type: functional; conditions: SF-268, 48 h, read-out: Activity
SF-539 = assay: Growth inhibition of human SF539 cells assessed as cell growth at 0.01 uM incubated for 48 hrs by sulforhodamine B assay relative to control; assay type: functional; conditions: SF-539, 48 h, read-out: Activity
UACC-257 = assay: Growth inhibition of human UACC257 cells assessed as cell growth at 0.01 uM incubated for 48 hrs by sulforhodamine B assay relative to control; assay type: functional; conditions: UACC-257, 48 h, read-out: Activity
RXF 393 = assay: Growth inhibition of human RXF393 cells assessed as cell growth at 0.01 uM incubated for 48 hrs by sulforhodamine B assay relative to control; assay type: functional; conditions: RXF 393, 48 h, read-out: Activity
PC-3 = assay: Growth inhibition of human PC3 cells assessed as cell growth at 0.01 uM incubated for 48 hrs by sulforhodamine B assay relative to control; assay type: functional; conditions: PC-3, 48 h, read-out: Activity
MDA-MB-468 = assay: Growth inhibition of human MDA-MB-468 cells assessed as cell growth at 0.01 uM incubated for 48 hrs by sulforhodamine B assay relative to control; assay type: functional; conditions: MDA-MB-468, 48 h, read-out: Activity
CCRF-CEM [4] = assay: Growth inhibition of human CCRF-CEM cells assessed as cell growth at 0.1 uM incubated for 48 hrs by sulforhodamine B assay relative to control; assay type: functional; conditions: read-out: Activity
NCI-H460 = assay: Growth inhibition of human NCI-H460 cells assessed as cell growth at 0.1 uM incubated for 48 hrs by sulforhodamine B assay relative to control; assay type: functional; conditions: NCI-H460, 48 h, read-out: Activity
NCI-H522 [5] = assay: Growth inhibition of human NCI-H522 cells assessed as cell growth at 0.1 uM incubated for 48 hrs by sulforhodamine B assay relative to control; assay type: functional; conditions: NCI-H522, 48 h, read-out: Activity
HCT-15 = assay: Growth inhibition of human HCT15 cells assessed as cell growth at 0.1 uM incubated for 48 hrs by sulforhodamine B assay relative to control; assay type: functional; conditions: HCT-15, 48 h, read-out: Activity
HT-29 [6] = assay: Growth inhibition of human HT-29 cells assessed as cell growth at 0.1 uM incubated for 48 hrs by sulforhodamine B assay relative to control; assay type: functional; conditions: HT-29, 48 h, read-out: Activity
KM12 = assay: Growth inhibition of human KM12 cells assessed as cell growth at 0.1 uM incubated for 48 hrs by sulforhodamine B assay relative to control; assay type: functional; conditions: KM12, 48 h, read-out: Activity
SK-MEL-5 = assay: Growth inhibition of human SK-MEL-5 cells assessed as cell growth at 0.1 uM incubated for 48 hrs by sulforhodamine B assay relative to control; assay type: functional; conditions: SK-MEL-5, 48 h, read-out: Activity
CCRF-CEM [7] = assay: Growth inhibition of human CCRF-CEM cells assessed as cell growth at 1 uM incubated for 48 hrs by sulforhodamine B assay relative to control; assay type: functional; conditions: read-out: Activity
MOLT-4 = assay: Growth inhibition of human MOLT4 cells assessed as cell growth at 1 uM incubated for 48 hrs by sulforhodamine B assay relative to control; assay type: functional; conditions: MOLT-4, 48 h, read-out: Activity
HCC 2998 = assay: Growth inhibition of human HCC2998 cells assessed as cell growth at 1 uM incubated for 48 hrs by sulforhodamine B assay relative to control; assay type: functional; conditions: HCC 2998, 48 h, read-out: Activity
A498 [8] = assay: Growth inhibition of human A498 cells assessed as cell growth at 1 uM incubated for 48 hrs by sulforhodamine B assay relative to control; assay type: functional; conditions: A498, 48 h, read-out: Activity
SR = assay: Growth inhibition of human SR cells assessed as cell growth at 100 uM incubated for 48 hrs by sulforhodamine B assay relative to control; assay type: functional; conditions: read-out: Activity
SNB-75 = assay: Growth inhibition of human SNB75 cells assessed as cell growth at 100 uM incubated for 48 hrs by sulforhodamine B assay relative to control; assay type: functional; conditions: SNB-75, 48 h, read-out: Activity
UACC-62 = assay: Growth inhibition of human UACC62 cells assessed as cell growth at 100 uM incubated for 48 hrs by sulforhodamine B assay relative to control; assay type: functional; conditions: UACC-62, 48 h, read-out: Activity
OVCAR-4 = assay: Growth inhibition of human OVCAR4 cells assessed as cell growth at 100 uM incubated for 48 hrs by sulforhodamine B assay relative to control; assay type: functional; conditions: OVCAR-4, 48 h, read-out: Activity
SK-OV-3 = assay: Growth inhibition of human SKOV3 cells assessed as cell growth at 100 uM incubated for 48 hrs by sulforhodamine B assay relative to control; assay type: functional; conditions: SK-OV-3, 48 h, read-out: Activity
A498 [9] = assay: Growth inhibition of human A498 cells assessed as cell growth at 100 uM incubated for 48 hrs by sulforhodamine B assay relative to control; assay type: functional; conditions: A498, 48 h, read-out: Activity
SN12C = assay: Growth inhibition of human SN12C cells assessed as cell growth at 100 uM incubated for 48 hrs by sulforhodamine B assay relative to control; assay type: functional; conditions: read-out: Activity
HL-60(TB) = assay: Growth inhibition of human HL-60(TB) cells assessed as cell growth at 1 uM incubated for 48 hrs by sulforhodamine B assay relative to control; assay type: functional; conditions: HL-60, 48 h, read-out: Activity
OVCAR-8 = assay: Growth inhibition of human OVCAR8 cells assessed as cell growth at 100 uM incubated for 48 hrs by sulforhodamine B assay relative to control; assay type: functional; conditions: OVCAR-8, 48 h, read-out: Activity

SMILES | growth at 10 µM (NCI-H522 [1]) | growth at 10 µM (HT-29 [2]) | growth at 10 µM (SK-MEL-2) | GI50 (NCI-H226; read-out: GI50) | LC50 (NCI-H226; read-out: LC50) | TGI (NCI-H226; read-out: TGI) | GI50 (NCI-H226; read-out: pGI50 (converted)) | LC50 (NCI-H226; read-out: pLC50 (converted)) | TGI (NCI-H226; read-out: pTGI (converted)) | GI50 (SW-620; read-out: GI50) | LC50 (SW-620; read-out: LC50) | TGI (SW-620; read-out: TGI) | GI50 (SW-620; read-out: pGI50 (converted)) | LC50 (SW-620; read-out: pLC50 (converted)) | TGI (SW-620; read-out: pTGI (converted)) | growth at 0.01 µM (CCRF-CEM [3]) | growth at 0.01 µM (SF-268) | growth at 0.01 µM (SF-539) | growth at 0.01 µM (UACC-257) | growth at 0.01 µM (RXF 393) | further results
O=C(Nc1cccc(-n2cc(-c3ccncc3)c(-c3cc(O)cc(Cl)c3)n2)c1)c1cc(C(F)(F)F)cc(C(F)(F)F)c1 | 17.8% | 19.7% | 57.8% | 1.51 µM | > 100 µM | > 100 µM | 16.2 µM | > 100 µM | > 100 µM | 4.48 µM | > 100 µM | > 100 µM | 4.47 µM | > 100 µM | > 100 µM | 96% | 92% | 98% | 92% | 96% | growth at 0.01 µM (PC-3): 95%; growth at 0.01 µM (MDA-MB-468): 91%; growth at 0.1 µM (CCRF-CEM [4]): 97%; growth at 0.1 µM (NCI-H460): 100%; growth at 0.1 µM (NCI-H522 [5]): 30%; growth at 0.1 µM (HCT-15): 90%; growth at 0.1 µM (HT-29 [6]): 91%; growth at 0.1 µM (KM12): 97%; growth at 0.1 µM (SK-MEL-5): 95%; growth at 1 µM (CCRF-CEM [7]): 56%; growth at 1 µM (MOLT-4): 78%; growth at 1 µM (HCC 2998): 96%; growth at 1 µM (A498 [8]): 78%; growth at 100 µM (SR): -18%; growth at 100 µM (SNB-75): 15%; growth at 100 µM (UACC-62): -35%; growth at 100 µM (OVCAR-4): 15%; growth at 100 µM (SK-OV-3): 30%; growth at 100 µM (A498 [9]): -2%; growth at 100 µM (SN12C): 17%
COc1cc(Cl)cc(-c2nn(-c3cccc(NC(=O)Nc4ccc(Cl)c(Cl)c4)c3)cc2-c2ccncc2)c1 | -19% | 7.39% | -32.1% | 3.06 µM | > 100 µM | > 100 µM | 3.09 µM | > 100 µM | > 100 µM | 3.43 µM | > 100 µM | > 100 µM | 3.39 µM | > 100 µM | > 100 µM | 97% | 95% | 100% | 96% | 100% | growth at 0.01 µM (PC-3): 96%; growth at 0.01 µM (MDA-MB-468): 95%; growth at 0.1 µM (CCRF-CEM [4]): 97%; growth at 0.1 µM (NCI-H460): 100%; growth at 0.1 µM (NCI-H522 [5]): 53%; growth at 0.1 µM (HCT-15): 53%; growth at 0.1 µM (HT-29 [6]): 91%; growth at 0.1 µM (KM12): 92%; growth at 0.1 µM (SK-MEL-5): 96%; growth at 1 µM (CCRF-CEM [7]): 82%; growth at 1 µM (HL-60(TB)): 91%; growth at 1 µM (MOLT-4): 70%; growth at 1 µM (HCC 2998): 91%; growth at 1 µM (A498 [8]): 73%; growth at 100 µM (SR): -26%; growth at 100 µM (SNB-75): -3%; growth at 100 µM (UACC-62): -32%; growth at 100 µM (OVCAR-4): -4%; growth at 100 µM (OVCAR-8): -9%; growth at 100 µM (SN12C): 5%
